According to PubChem BioAssay AID1421 (Emory University Molecular Libraries Screening Center, 2008):
Active and inactive are the calls of the source. The rule behind the calls is not given here.

target: Prostaglandin E2 receptor EP2 subtype (Homo sapiens) (UniProt P43116); test: EP2 receptor modulators, dose response, cell-based, human EP2, PGE2 EC50 shift (AID 1421); conditions: EP2-expressing cells, PGE2 EC50 shift by compound
Sequence (P43116 whole entry, looked up): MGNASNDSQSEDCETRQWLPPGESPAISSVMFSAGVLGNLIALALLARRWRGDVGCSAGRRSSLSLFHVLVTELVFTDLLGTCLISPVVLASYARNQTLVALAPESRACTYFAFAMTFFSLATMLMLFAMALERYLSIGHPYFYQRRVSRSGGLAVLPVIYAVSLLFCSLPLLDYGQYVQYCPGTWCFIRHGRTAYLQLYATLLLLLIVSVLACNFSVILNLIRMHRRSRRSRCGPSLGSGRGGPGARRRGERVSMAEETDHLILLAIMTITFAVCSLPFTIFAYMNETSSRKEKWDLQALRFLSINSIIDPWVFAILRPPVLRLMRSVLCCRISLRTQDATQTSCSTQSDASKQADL

Compound | outcome
CCOC(=O)C(C)Sc1nc(-c2ccccc2)nc2ccccc12 (centres undefined) | active

same assay, conditions: EP2-expressing cells, PGE2 EC50 shift by compound; measured here: PGE2 EC50 at 6.7 uM compound

Compound | PGE2 EC50 with compound [nM]
Cc1ccc(C)c(N=C2CCCN2Cc2ccccc2)c1C#N | 0.61
CC1C(c2ccccc2)N(C)C(c2ccccc2)C(C)C1(O)C#Cc1ccccc1 (centres undefined) | 0.32
Cc1cc(C)n(CCOc2ccc(Cl)cc2Cl)n1 | 0.63
CN(CC(=O)Nc1ccccc1-c1ccccc1)Cc1ccccc1Cl | 0.95
Cc1cc(NC(=O)C2=C(O)c3ccccc3S(=O)(=O)N2C)no1 | 1.8
C=CCc1cccc(/C=N/c2nc3ccccc3n2CC)c1O | 0.63
O=C(Oc1ccc(-c2nccc(-c3ccccn3)n2)cc1)c1cccc(C(F)(F)F)c1 | 1.44
Cc1ccc(S(=O)(=O)NCC(=O)OCN2C(=O)c3ccccc3C2=O)cc1 | 1.01
Cc1ccc2nc(SCC(=O)NCc3ccco3)c(C)cc2c1 | 0.76
Cc1ccc(C(=O)N2N=C(c3ccccc3)CC2(O)C(F)(F)F)o1 (centres undefined) | 1.62
c1ccc(Cn2c(-c3ccccc3)nc3nc4ccccc4nc32)cc1 | 1.08
C=CCn1c(CCc2cc(C(C)(C)C)c(O)c(C(C)(C)C)c2)n[nH]c1=S | 1.14
CCOP(=O)(OCC)c1nc(-c2ccc(F)cc2)oc1NCc1ccccc1 | 1.09
COc1ccc(OC)c(C(=O)c2coc3ccc(OCC(=O)O)cc23)c1 | 0.98
CC1CCN(C(C)C(=O)Nc2ccccc2-c2ccccc2)CC1 (centres undefined) | 1.27
CCOC(=O)CSc1nnc2n(C3CCCCC3)c(=O)c3c4c(sc3n12)CCCC4 | 1.13
CCSc1nnc(-c2ccc(Cl)cc2)c2ccccc12 | 0.76
CCOc1ccccc1-c1nc2c(C(C)(C)C)nn(C)c2c(=O)[nH]1 | 1.51
COc1ccc(C2=Nn3c(nnc3-c3ccccc3)SC2)cc1OC | 2.63
C1=C(c2ccccc2)Nc2ccccc2N=C1c1ccccc1 | 2.46
CCOC(=O)c1c(CC(C)C)csc1NC(=O)CCl | 1.13
Cc1ccc(-c2nc(P(=O)(c3ccccc3)c3ccccc3)c(N3CCOCC3)o2)cc1 | 1.18

Compound | PGE2 EC50 with compound [nM]
Cc1cc2ccccn2c1C(=O)c1ccc(Cl)cc1 | 1.24
CC[C@H](C)C(=O)O[C@H]1C[C@@H](C)C=C2C=C[C@H](C)[C@H](CC[C@@H]3C[C@@H](O)CC(=O)O3)[C@H]21 | 0.97
COC(=O)c1c(NC(=O)Cc2cccs2)sc(C)c1C | 0.88
COc1ccc(N2C(=O)N(Cc3ccc(C)cc3)c3ccccc3S2(=O)=O)cc1 | 2.81
CC1CCCCN1C(=O)/C(=C\c1ccccc1)c1ccccc1 (centres undefined) | 2.61
c1ccc(-c2noc(-c3cccc4ccccc34)n2)cc1 | 1.18
CCCCCCn1c(SCC(C)C)nc2c1c(=O)[nH]c(=O)n2C | 1.08
COCC(=O)Nc1sc2c(c1C(=O)OC)CCC(C)C2 (centres undefined) | 1.32
CC(=O)c1ccc(S(=O)(=O)NCCCC(=O)NCCc2ccccn2)cc1 | 1.15
O=C(c1cc2sccc2n1Cc1ccccc1)N1CCCc2ccccc21 | 1.3
CCSc1ccccc1C(=O)n1nnc2ccccc21 | 1.77
Cn1c(CNc2ccc(F)cc2)nnc1SCC(=O)NNC(=O)Cc1ccccc1 | 1.63
c1ccc2c(-c3nc(C4CCCCC4)no3)cc(-c3ccncc3)nc2c1 | 0.34
CC1=CC(C)(C)N(S(=O)(=O)c2ccc(F)cc2)c2ccc(C)cc21 | 0.8
CC(C)=CCC/C(C)=C/CC/C(C)=C/CSc1ccccc1C(=O)O | 0.69
CCOC(=O)C(C)Sc1nc(-c2ccccc2)nc2ccccc12 (centres undefined) | 0.92
Cc1ccccc1S(=O)(=O)c1c(C)cc(C)n(C(C)C)c1=O | 0.83
COc1ccc(C)cc1NC(=O)C1CC(=O)OC12CCCCC2 (centres undefined) | 0.67
O=C(C(c1ccccc1)c1ccccc1)N1CCCc2ccccc21 | 0.71
N#CN=C1SCCS1 | 0.92
CCCn1c(C)nc2c(c1=O)c1nc3ccccc3nc1n2CCC1=CCCCC1 | 1.42
